Experimental data as given in patent US7601746B2 (Shionogi & Co., Ltd., priority 2003, dated 2009).

Biological target: T1, human TPO receptor (hTPOR) (Homo sapiens, UniProt P40238)
T1 construct: expressed in transfected cells; host or cells: BaF-B03 (murine IL-3 dependent cell line)
T1 sequence (P40238 26-635): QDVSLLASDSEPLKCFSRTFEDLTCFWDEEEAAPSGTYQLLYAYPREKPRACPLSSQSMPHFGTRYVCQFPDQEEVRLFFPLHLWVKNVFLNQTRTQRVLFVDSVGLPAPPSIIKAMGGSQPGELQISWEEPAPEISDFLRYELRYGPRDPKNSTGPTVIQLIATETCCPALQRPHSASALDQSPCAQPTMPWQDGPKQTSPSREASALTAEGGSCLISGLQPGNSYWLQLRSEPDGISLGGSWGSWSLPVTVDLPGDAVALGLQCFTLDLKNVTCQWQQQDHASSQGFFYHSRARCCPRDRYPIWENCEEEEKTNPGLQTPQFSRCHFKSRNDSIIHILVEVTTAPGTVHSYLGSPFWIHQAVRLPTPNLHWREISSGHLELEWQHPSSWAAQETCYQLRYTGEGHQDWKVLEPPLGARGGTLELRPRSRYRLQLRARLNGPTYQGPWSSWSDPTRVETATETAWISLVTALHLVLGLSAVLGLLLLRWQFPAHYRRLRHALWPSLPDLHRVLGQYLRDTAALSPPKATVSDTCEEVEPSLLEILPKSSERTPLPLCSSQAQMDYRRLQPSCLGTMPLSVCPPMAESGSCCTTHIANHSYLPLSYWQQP
Test: Thrombopoietic activity: proliferation of TPO dependent BaF/hTPOR cells (WST-1, absorbance at 450 nm)
Format: cell-based
Settings: 20 h + 4 h WST-1, ED50 = half concentration of the concentration showing the maximum thrombopoietic activity, Table 1
Description: The TPO dependent BaF/hTPOR cell line which was established by introducing human TPO receptor (hTPOR) into BaF-B03 cells according to Collins et al (J. Cell. Physiol., 137:293-298 (1988)) was used to test the thrombopoietic activity of the present compound. The DNA sequences and encoded peptide sequences for human hTPOR have been described by Vigon et al (Proc. Natl. Acad. Sci. USA, 89:5640-5644 (1992)). TPO dose not have any ability to support proliferation of interlukin-3 dependent parental cell line BaF-B03. BAF/hTPOR cells were maintained in RPMI medium and WEHI-3B conditioned medium as a source of murine interleukin-3 (IL-3). These cells were washed and resuspended in RPMI medium without a source of murine IL-3 and seeded into each well of 96-well microtiter plates at a density of 5×10^4 cells per well in the absence or presence of various concentration of hTPO or the present compound. After incubation at 37° C. for 20 hours in the 5% CO2 incubator, 10% WST-1 reagent (Takara Biomedicals, Japan) was added to each wells and the cells were further incubated for 4 hours. The absorbance at 450 nm was measured. Tables 1 and 2 exemplify the ED50 for tested compounds of the present invention, wherein the ED50 is the half concentration of the concentration showing the maximum thrombopoietic activity.

| Molecule | EC50 [nM] |
| --- | --- |
| 3-[2,6-difluoro-4-(4-{2-fluoro-3-{1-(3-methylbutyloxypropyl)phenyl]thiazol-2-ylcarbamoyl}phenyl)-2-methylacrylic acid [Compound B18] | 0.57 |
| 3-{2,6-difluoro-4,5-dihydro-4-[6-(3-ethyloxypropyl)naphtho[1,2-d]thiazol-2-ylcabamoyl]phenyl}-2-methylacrylic acid [Compound A8] | 2.9 |
| COc1c(COCCC(C)(C)C)cccc1-c1csc(NC(=O)c2cc(Cl)c(C=C(C)C(=O)O)c(Cl)c2)n1 (stereo in doubt) [Compound B1936, (Z)-3-(2,6-dichloro-4-{4-[3-(3,3-dimethylbutyloxymethyl)-2-methyloxyphenyl]thiazol-2-ylcarbamoyl}phenyl)-2-methylacrylic acid] | 17.1 |
| COC(=Cc1c(F)cc(C(=O)Nc2nc(-c3cccc(COCC(C)(C)C)c3OC)cs2)cc1F)C(=O)O (stereo in doubt) [Compound B2020, (E)-3-(4-{4-[3-(2,2-dimethylpropyloxymethyl)-2-methyloxyphenyl]thiazol-2-ylcarbamoyl}-2,6-difluorophenyl)-2-methyloxyacrylic acid] | 10.9 |
| CCCC(CCc1cccc2c1CCc1sc(NC(=O)c3cc(F)c(C=C(C)C(=O)O)c(F)c3)nc1-2)OC (centres unmarked) [Compound A1, 3-{2,6-difluoro-4-[4,5-dihydro-6-(3-methyloxyhexyl)naphtho[1,2-d]thiazol-2-ylcarbamoyl]phenyl}-2-methylacrylic acid] | 2.27 |
| CCCCCc1cccc2c1CCc1sc(NC(=O)c3cc(F)c(C=C(C)C(=O)O)c(F)c3)nc1-2 [Compound A2, 3-[2,6-difluoro-4-(4,5-dihydro-6-pentylnaphtho[1,2-d]thiazol-2-ylcabamoyl)phenyl]-2-methylacrylic acid] | 4 |
| CC(=Cc1c(F)cc(C(=O)Nc2nc3c(s2)CCc2c(CCC(C)(C)C)cccc2-3)cc1F)C(=O)O [Compound A3, 3-{2,6-difluoro-4-[4,5-dihydro-6-(3,3-dimethylbutyl)naphtho[1,2-d]thiazol-2-ylcabamoyl)phenyl]-2-methylacrylic acid] | 4 |
| COC(CCc1cccc2c1CCc1sc(NC(=O)c3cc(F)c(C=C(C)C(=O)O)c(F)c3)nc1-2)C(C)(C)C (centres unmarked) [Compound A4, 3-{2,6-difluoro-4-[4,5-dihydro-6-(3-methyloxy-4,4-dimethylpentyl)naphtho[1,2-d]thiazol-2-ylcabamoyl]phenyl}-2-methylacrylic acid] | 1.8 |
| CCCCOCCCc1cccc2c1CCc1sc(NC(=O)c3cc(F)c(C=C(C)C(=O)O)c(F)c3)nc1-2 [Compound A5, 3-{4-[6-(3-n-butyloxypropyl)-4,5-dihydronaphto[1,2-d]thiazol-2-ylcabamoyl]-2,6-difluorophenyl}-2-methylacrylic acid] | 1.91 |
| CC(=Cc1c(F)cc(C(=O)Nc2nc3c(s2)CCc2c(CCCOCC(C)(C)C)cccc2-3)cc1F)C(=O)O [Compound A6, 3-(2,6-difluoro-4-{4,5-dihydro-6-[3-(2,2-dimethylpropyloxy)propyl]naphtho[1,2-d]thiazol-2-ylcabamoyl}phenyl)-2-methylacrylic acid] | 1.04 |
| CC(=Cc1c(F)cc(C(=O)Nc2nc3c(s2)CCc2c(CCCOC(C)C)cccc2-3)cc1F)C(=O)O [Compound A7, 3-{2,6-difluoro-4-[4,5-dihydro-6-(3-isopropyloxypropyl)naphtho[1,2-d]thiazol-2-ylcabamoyl]phenyl}-2-methylacrylic acid] | 2.26 |
| CCCOCCCc1cccc2c1CCc1sc(NC(=O)c3cc(F)c(C=C(C)C(=O)O)c(F)c3)nc1-2 [Compound A9, 3-{2,6-difluoro-4-[4,5-dihydro-6-(3-n-propyloxypropyl)naphto[1,2-d]thiazol-2-ylcabamoyl]phenyl}-2-methylacrylic acid] | 3 |
| CCOCCCc1cccc2c1CCc1sc(NC(=O)c3cc(Cl)c(C=C(C)C(=O)O)c(Cl)c3)nc1-2 [Compound A10, 3-{2,6-dichloro-4-[4,5-dihydro-6-(3-ethyloxypropyl)naphtho[1,2-d]thiazol-2-ylcabamoyl]phenyl}-2-methylacrylic acid] | 1.2 |
| CCCCOCCCc1cccc2c1CCc1sc(NC(=O)c3cc(Cl)c(C=C(C)C(=O)O)c(Cl)c3)nc1-2 [Compound A11, 3-{4-[6-(3-n-butyloxypropyl)-4,5-dihydronaphtho[1,2-d]thiazol-2-ylcabamoyl]-2,6-dichlorophenyl}-2-methylacrylic acid] | 0.87 |
| CCCC(CCc1cccc2c1CCc1sc(NC(=O)c3cc(F)c(C=C(C)C(=O)O)c(F)c3)nc1-2)OC (centres unmarked) [Compound A12, 3-{2,6-difluoro-4-[4,5-dihydro-6-(3-methyloxyhexyl)naphtho[1,2-d]thiazol-2-ylcabamoyl]phenyl}-2-methylacrylic acid] | 0.8 |
| CCCOCCCc1cccc2c1OCc1sc(NC(=O)c3cc(Cl)c(/C=C(\C)C(=O)O)c(Cl)c3)nc1-2 [Compound A1123, (E)-3-{2,6-dichloro-4-[6-(3-propyloxypropyl)-4H-chromeno[4,3-d]thiazol-2-ylcabamoyl]phenyl}-2-methylacrylic acid] | 7.27 |
| CCCc1cccc2c1OCc1sc(NC(=O)c3cc(F)c(/C=C(\C)C(=O)O)c(F)c3)nc1-2 [Compound A1308, (E)-3-[2,6-difluoro-4-(6-propyl-4H-chromeno[4,3-d]thiazol-2-ylcabamoyl)phenyl]-2-methylacrylic acid] | 12.9 |
| C/C(=C\c1c(F)cc(C(=O)Nc2nc3c(s2)COc2c-3cccc2C(C)C)cc1F)C(=O)O [Compound A1309, (E)-3-[2,6-difluoro-4-(6-isopropyl-4H-chromeno[4,3-d]thiazol-2-ylcarbamoyl)phenyl]-2-methylacrylic acid] | 12.8 |
| CCc1cccc2c1OCc1sc(NC(=O)c3cc(Cl)c(/C=C(\C)C(=O)O)c(Cl)c3)nc1-2 [Compound A1310, (E)-3-[2,6-dichloro-4-(6-ethyl-4H-chromeno[4,3-d]thiazol-2-ylcabamoyl)phenyl]-2-methylacrylic acid] | 12.3 |
| CCCc1cccc2c1OCc1sc(NC(=O)c3cc(Cl)c(/C=C(\C)C(=O)O)c(Cl)c3)nc1-2 [Compound A1311, (E)-3-[2,6-dichloro-4-(6-propyl-4H-chromeno[4,3-d]thiazol-2-ylcabamoyl)phenyl]-2-methylacrylic acid] | 8.86 |
| C/C(=C\c1c(Cl)cc(C(=O)Nc2nc3c(s2)COc2c-3cccc2C(C)C)cc1Cl)C(=O)O [Compound A1312, (E)-3-[2,6-dichloro-4-(6-isopropyl-4H-chromeno[4,3-d]thiazol-2-ylcabamoyl)phenyl]-2-methylacrylic acid] | 10.8 |
| CCCCCCc1cccc2c1OCc1sc(NC(=O)c3cc(F)c(/C=C(\C)C(=O)O)c(F)c3)nc1-2 [Compound A1314, (E)-3-[2,6-difluoro-4-(6-hexyl-4H-chromeno[4,3-d]thiazol-2-ylcabamoyl)phenyl]-2-methylacrylic acid] | 12.5 |
| C/C(=C\c1c(F)cc(C(=O)Nc2nc3c(s2)COc2c(CCC(C)(C)C)cccc2-3)cc1F)C(=O)O [Compound A1315, (E)-3-{4-[6-(3,3-dimethylbutyl)-4H-chromeno[4,3-d]thiazol-2-ylcabamoyl]-2,6-difluorophenyl}-2-methylacrylic acid] | 12.5 |
